Results published in patent US20240269170A1, “Treatment of Inflammatory Conditions or Diseases” (Queen Mary University of London, priority 2021, published 2024).

Tested on: mononuclear phagocytes
Experiment: Phosphoproteomic analysis of GM-CSF differentiated human monocytes incubated with MCTR3 vs vehicle
Type: cell-based
Procedure: FIG. 5: MCTR3 reprograms the arthritic monocyte-derive macrophage transcriptome. A-B) Arthritis was induced and prolonged in C57BL/6 mice by administering 100 μL K/B×N serum i.p. on day 0, 2 and 9. Mice were treated on day 12 i.v. with 2×10^6 monocytes isolated from arthritic mice and incubated either with vehicle (PBS+0.1% DMSO) or 10 μM RG108, a DNMT inhibitor, for 15 min and then with a vehicle (PBS+0.1% EtOH) or 1 nM MCTR3 for 90 min (37° C.). Disease course was monitored daily by assessing A) clinical scores and B) oedema. Results are mean±SEM and expressed as percent change from day of treatment. n=10 mice per group. Statistical differences were evaluated using Two-way ANOVA. (C-E) K/B×N serum (100 μL, i.p.) was administered to mice on days 0, 2 and 9 to induce and prolong inflammatory arthritis. On day 12, mice were treated i.v. with 2×10^6 monocytes isolated from arthritic mice that were previously incubated with either vehicle (PBS+0.1% EtOH) or 1 nM MCTR3 for 90 min. Cells were isolated from paw joints on day 22, sorted for CD45^+ cells and single cell RNA sequencing was performed. […] Results are from n=4 mice per group. (F-G) Monocytes were isolated from human healthy volunteers, these cells were then incubated with GM-CSF (7 days, 37° C.) then with either Vehicle or MCTR3 (1 nM, 37° C.). Cells were lysed and the phosphoproteome determined using mass spectrometry. (F) GO Biological pathway analysis and (G) KEGG pathway analysis for proteins found to be differentially phosphorylated in cells incubated with MCTR3 when compared to those incubated with vehicle. Results are representative of cells from n=3 healthy volunteers per group
To further explore the mechanisms regulated by MCTR3 to reprogram mononuclear phagocytes we next evaluated the signaling pathways activated by MCTR3 using a phosphoproteomic approach. […] This regulation was also observed when using the Kyoto Encyclopaedia of Genes and Genomes pathway database that highlighted an enrichment of spliceosome linked proteins as well as proteins involved in mRNA surveillance by MCTR3. (FIG. 5G and Table 7). […] These findings indicate that MCTR3 promotes the reprograming of mononuclear phagocytes by both regulating epigenetic programs and protein translation to facilitate the termination of inflammation and joint protection. They also support the hypothesis that MCTR3-reprogrammed monocytes recruited into arthritic joints exert their activities via the upregulation of tissue protective pathways. […]
For evaluation of signalling pathways activated by MCTR3, monocytes were isolated from peripheral blood of healthy volunteers, incubated with GM-CSF (20 ng/ml, in RPMI containing 10% human serum) for 7 days and then incubated with MCTR3 (1 nM, in DPBS^+/+).
Phosphoproteomics experiments were performed using mass spectrometry. In brief, cells were lysed in 8M urea buffer and supplemented with phosphatase inhibitors (10 mM Na3VO4, 100 mM B-glycerol phosphate and 25 mM Na2H2P2O7 (Sigma)). Proteins were digested into peptides using trypsin. Phosphopeptides were enriched from total peptides by TiO2 chromatography. Dried phosphopeptides were dissolved in 0.1% TFA and analysed by nanoflow ultimate 3000 RSL nano instrument was coupled on-line to a Q Exactive plus mass spectrometer (Thermo Fisher Scientific). Gradient elution was from 3% to 35% buffer B in 120 min at a flow rate 300 nL/min with buffer A being used to balance the mobile phase (buffer A was 0.1% formic acid in water and B was 0.1% formic acid in acetonitrile). The spray voltage was 1.95 kV and the capillary temperature was set to 255° C. The Q-Exactive plus was operated in data dependent mode with one survey MS scan followed by 15 MS/MS scans. The full scans were acquired in the mass analyser at 375-1500m/z with the resolution of 70 000, and the MS/MS scans were obtained with a resolution of 17 500. […]

[1] = KEGG Pathway, differentially phosphorylated proteins, 1 nM MCTR3 vs vehicle
[2] = Reactome Gene Sets, differentially phosphorylated proteins, 1 nM MCTR3 vs vehicle

CC/C=C\C/C=C\C[C@H](O)[C@@H](/C=C/C=C/C=C\C/C=C\CCC(=O)O)SC[C@H](N)C(=O)O [MCTR3, 13R-cysteinyl, 14S-hydroxy-4Z, 7Z, 9E, 11E, 13R, 14S, 16Z, 19Z-docosahexaenoic acid]
phosphorylation status of SETD2, Histone deacetylase 1 and Histone deacetylase 2 (1 nM MCTR3): regulated | proteins involved in post-transcriptional regulation and protein translation (differential phosphorylation, GO analysis) (1 nM MCTR3): marked regulation | Endocytosis (ko04144) enrichment LogP [1]: −3.117 | Fc gamma R-mediated phagocytosis (ko04666) enrichment LogP [1]: −2.545 | Glycolysis, core module involving three-carbon compounds (M00002) enrichment LogP [1]: −4.6043 | Guanine ribonucleotide biosynthesis IMP => GDP, GTP (M00050) enrichment LogP [1]: −3.0343 | Herpes simplex infection (ko05168) enrichment LogP [1]: −2.0881 | Neurotrophin signaling pathway (ko04722) enrichment LogP [1]: −2.6025 | Notch signaling pathway (ko04330) enrichment LogP [1]: −4.0393 | Spliceosome (hsa03040) enrichment LogP [1]: −7.662 | Transcriptional misregulation in cancer (ko05202) enrichment LogP [1]: −2.704 | mRNA surveillance pathway (ko03015) enrichment LogP [1]: −3.284 | parathyroid hormone synthesis, secretion and action (hsa04928) enrichment LogP [1]: −2.088 | Apoptotic execution phase (R-HSA-75153) enrichment LogP [2]: −3.842 | COPII-mediated vesicle transport (R-HSA-204005) enrichment LogP [2]: −2.4 | Diseases of signal transduction by growth factor receptors and second messengers (R-HSA-5663202) enrichment LogP [2]: −4.434 | Estrogen-dependent gene expression (R-HSA-9018519) enrichment LogP [2]: −2.633 | Formation of RNA Pol II elongation complex (R-HSA-112382) enrichment LogP [2]: −4.381 | Initiation of Nuclear Envelope (NE) Reformation (R-HSA-2995383) enrichment LogP [2]: −3.748 | Interferon gamma signaling (R-HSA-877300) enrichment LogP [2]: −2.545 | Nervous system development (R-HSA-9675108) enrichment LogP [2]: −3.151 | Neutrophil degranulation (R-HSA-6798695) enrichment LogP [2]: −2.465 | Prolonged ERK activation events (R-HSA-169893) enrichment LogP [2]: −2.935 | RHO GTPase Effectors (R-HSA-195258) enrichment LogP [2]: −3.726 | Regulation of MECP2 expression and activity (R-HSA-9022692) enrichment LogP [2]: −6.229 | SUMO E3 ligases SUMOylate target proteins (R-HSA-3108232) enrichment LogP [2]: −6.009 | Signaling by NTRKs (R-HSA-166520) enrichment LogP [2]: −5.116 | TRAF3-dependent IRF activation pathway (R-HSA-918233) enrichment LogP [2]: −2.935 | Transcriptional Regulation by TP53 (R-HSA-3700989) enrichment LogP [2]: −7.191 | Vesicle-mediated transport (R-HSA-5653656) enrichment LogP [2]: −6.611 | p75 NTR receptor-mediated signalling (R-HSA-193704) enrichment LogP [2]: −6.512
